Experimental data: ChEMBL document CHEMBL1134134, “Novel tricyclic benzothiazolo[2,3-c]thiadiazine antagonists of the platelet ADP receptor (P2Y(12))” (Bioorg Med Chem Lett, 2001)

How the values were obtained:
[1] = organism: Homo sapiens; test: Ability to inhibit platelet aggregation; format: functional, organism-based
[2] = biological target: T1, P2Y purinoceptor 12 (Homo sapiens, UniProt Q9H244); test: Compound was evaluated for its ability to inhibit human Purinergic receptor P2Y12 expressed in Xenopus oocyte
[3] = biological target: T1, P2Y purinoceptor 12; test: Ability to displace [3H]2-MeS-ADP from human Purinergic receptor P2Y12; format: tissue-based

T1 sequence (Q9H244 whole entry): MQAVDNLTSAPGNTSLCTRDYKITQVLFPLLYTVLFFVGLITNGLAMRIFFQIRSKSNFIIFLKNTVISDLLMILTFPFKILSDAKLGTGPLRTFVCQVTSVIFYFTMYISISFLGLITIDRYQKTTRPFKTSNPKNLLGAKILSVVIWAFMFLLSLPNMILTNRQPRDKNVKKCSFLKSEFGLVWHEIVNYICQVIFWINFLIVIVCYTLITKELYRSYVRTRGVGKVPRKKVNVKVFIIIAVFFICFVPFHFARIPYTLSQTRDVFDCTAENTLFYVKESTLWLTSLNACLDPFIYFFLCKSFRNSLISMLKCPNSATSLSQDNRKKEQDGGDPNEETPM

Compound	IC50 [1]	IC50 [3]	IC50 [2]
CCOc1ccc2c(c1)SC1=NS(=O)(=O)C(C(=O)CS(=O)(=O)Nc3nc4ccc(OCC)cc4s3)=C(O)N12	0.18 µM		0.04 µM
O=C1/C(=C(\O)CS(=O)(=O)Nc2nc3ccc(F)cc3s2)S(=O)(=O)N=C2Sc3cc(F)ccc3N12	> 120 µM	37 µM	
COc1cccc2c1N1C(O)=CS(=O)(=O)N=C1S2	> 120 µM	77 µM	
O=C1/C(=C(\O)CS(=O)(=O)Nc2nc3ccc(Oc4ccccc4)cc3s2)S(=O)(=O)N=C2Sc3cc(Oc4ccccc4)ccc3N12	> 24 µM	> 50 µM	
O=S1(=O)C=C(O)N2C(=N1)Sc1cc(OC(F)(F)F)ccc12	> 50 µM	> 120 µM	
O=C1/C(=C(\O)CS(=O)(=O)Nc2nc3ccc(C4CCCCC4)cc3s2)S(=O)(=O)N=C2Sc3cc(C4CCCCC4)ccc3N12	> 120 µM	> 120 µM	
O=C1/C(=C(\O)CS(=O)(=O)Nc2nc3ccc(-c4ccccc4)cc3s2)S(=O)(=O)N=C2Sc3cc(-c4ccccc4)ccc3N12	> 24 µM	> 50 µM	

Further compounds by falling IC50 [1], results first:

IC50 [1]	IC50 [3]	Compound	IC50 [2]
64 µM	35 µM	O=C1/C(=C(\O)CS(=O)(=O)Nc2nc3ccc(Cl)cc3s2)S(=O)(=O)N=C2Sc3cc(Cl)ccc3N12	
50 µM	35 µM	O=C1/C(=C(\O)CS(=O)(=O)Nc2nc3ccc([N+](=O)[O-])cc3s2)S(=O)(=O)N=C2Sc3cc([N+](=O)[O-])ccc3N12	
26 µM	21 µM	O=C1/C(=C(\O)CS(=O)(=O)Nc2nc3ccccc3s2)S(=O)(=O)N=C2Sc3ccccc3N12	
9.5 µM		Cc1ccc2c(c1)SC1=NS(=O)(=O)C(C(=O)CS(=O)(=O)Nc3nc4ccc(C)cc4s3)=C(O)N12	
2.9 µM	1.1 µM	CS(=O)(=O)c1ccc2c(c1)SC1=NS(=O)(=O)C(C(=O)CS(=O)(=O)Nc3nc4ccc(S(C)(=O)=O)cc4s3)=C(O)N12	
1.5 µM		COc1ccc2c(c1)SC1=NS(=O)(=O)C(C(=O)CS(=O)(=O)Nc3nc4ccc(OC)cc4s3)=C(O)N12	
0.8 µM	1.8 µM	CCOC(=O)c1ccc2c(c1)SC1=NS(=O)(=O)C(C(=O)CS(=O)(=O)Nc3nc4ccc(C(=O)OCC)cc4s3)=C(O)N12	
